Where “and” joins values, the source holds several entries; their conditions need not be identical. Equal entries are not always repeated.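 Dose response: 5 concentrations. Exposure: 48 h. Format: 96-well plates. Endpoint: linear interpolation; highest concentration if not reached. The concentration for 50% growth inhibition is given as GI50. TGI marks complete inhibition of growth.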
How the values were obtained:
Test in all cases: DTP human tumour cell line panel, 48 h
786-0 renal = test system: 786-0 renal
SF-268 CNS = test system: SF-268 CNS
HT29 colon = test system: HT29 colon
K-562 leukemia = test system: K-562 leukemia
MDA-MB-435 = test system: MDA-MB-435
HCC-2998 colon = test system: HCC-2998 colon
U251 CNS = test system: U251 CNS
CAKI-1 renal = test system: CAKI-1 renal
IGROV1 ovarian = test system: IGROV1 ovarian
A549 NSCLC = test system: A549 NSCLC

| SMILES | GI50 (786-0 renal) | TGI (786-0 renal) | GI50 (SF-268 CNS) | TGI (SF-268 CNS) | GI50 (HT29 colon) | TGI (HT29 colon) | GI50 (K-562 leukemia) | TGI (K-562 leukemia) | GI50 (MDA-MB-435) | TGI (MDA-MB-435) | GI50 (HCC-2998 colon) | TGI (HCC-2998 colon) | GI50 (U251 CNS) | TGI (U251 CNS) | GI50 (CAKI-1 renal) | TGI (CAKI-1 renal) | GI50 (IGROV1 ovarian) | TGI (IGROV1 ovarian) | GI50 (A549 NSCLC) | TGI (A549 NSCLC) |
| --- | --- | --- | --- | --- | --- | --- | --- | --- | --- | --- | --- | --- | --- | --- | --- | --- | --- | --- | --- | --- |
| COc1cc(/C(Cl)=C/C=C/C(=O)c2c(C)[n+]([O-])c3ccc(Cl)cc3[n+]2[O-])cc(OC)c1OC | 4.62 µM | > 50 µM | 5.54 µM | 14.2 µM | 2.07 µM | 9.1 µM | 1.43 µM | 6.24 µM | 0.673 µM | 1.74 µM | 16.7 µM | > 50 µM | 2.57 µM | 10.5 µM | 1.66 µM | 10.6 µM | 3.78 µM | 13.2 µM |  |  |
| CN1CCN(c2ccc(C(=O)Nc3n[nH]c4ccc(Cc5cc(F)cc(F)c5)cc34)c(NC3CCOCC3)c2)CC1 | 1.41 µM and 1.31 µM | 2.99 µM and 2.62 µM | 2.25 µM and 1.45 µM | > 10 µM and 2.87 µM | 0.971 µM and 1.06 µM | 3.38 µM and 2.46 µM | 1.78 µM and 1.69 µM | 4.83 µM and 3.61 µM | 1.39 µM and 1.49 µM | 2.86 µM and 3.13 µM | 1.49 µM and 1.59 µM | 3 µM and 3.18 µM | 1.64 µM and 1.54 µM | 3.29 µM and 2.95 µM | 8.53 µM and 1.56 µM | > 10 µM and 3.07 µM | 0.641 µM and 1.3 µM | 3 µM and 2.72 µM | 2.5 µM and 1.3 µM | > 10 µM and 2.72 µM |
| Cc1c2cnccc2c(C)c2c1c1cc(C3OCCCO3)ccc1n2C | 0.457 µM | 3.25 µM | 0.268 µM | 1.71 µM | 0.363 µM | 2.12 µM | 0.418 µM | 2.69 µM | 0.411 µM | 1.55 µM | 0.659 µM | 2.94 µM | 0.308 µM | 1.33 µM | 0.314 µM | 3.45 µM | 0.337 µM | 2.37 µM | 0.461 µM | 2.5 µM |
| O=C(c1ccccc1)c1c(NCC(O)CN2CCCC2)n(Cc2ccccc2)c(=O)n(Cc2ccccc2)c1=O (configuration not stated) | 18.9 µM | 35.5 µM | 19.6 µM | 40.8 µM | 17.3 µM | 33.6 µM | 23.9 µM | 99.1 µM | 17.4 µM | 32.8 µM | 20.5 µM | 36.5 µM | 16.1 µM | 29.6 µM | 24.3 µM | 59 µM | 21.6 µM | 52.8 µM | 32.3 µM | > 100 µM |
| CC/C(Cc1ccccc1)=C(\c1ccc(OCCN2CCCCCC2)cc1)c1ccc(OC(=O)NCc2ccccc2)cc1 | 1.38 µM | 4.43 µM | 4.23 µM | 11.3 µM | 1.34 µM | 3.53 µM | 0.898 µM | 2.33 µM | 1.54 µM | 5.08 µM | 2.01 µM | 8.05 µM | 1.77 µM | 5.48 µM | 4.52 µM | 10.5 µM | 2.31 µM | 8.82 µM | 2.48 µM | 8.64 µM |
| C=CC(=O)Nc1ccc(Nc2nccc(-c3ccc(N4CCCC4)c(C#N)c3)n2)cc1 | 0.663 µM | 3.87 µM | 15.8 µM | > 25 µM | > 25 µM | > 25 µM | 5.94 µM | > 25 µM | 7.09 µM | > 25 µM | > 25 µM | > 25 µM | 15.4 µM | > 25 µM | 4.6 µM | > 25 µM | 1.85 µM | > 25 µM | 11 µM | > 25 µM |
| Cc1[nH]ncc1-c1cc2nc(C3CC4CCN3CC4)[nH]c(=O)c2s1 (configuration not stated) | 2.92 µM | > 100 µM | 3.8 µM | > 100 µM | 3.85 µM | > 100 µM | 6.54 µM | > 100 µM | 4.45 µM | 30 µM | 7.09 µM | > 100 µM | 2.52 µM | > 100 µM | 2.43 µM | > 100 µM | 3.47 µM | > 100 µM | 2.67 µM | > 100 µM |
| O=C(/C=C/c1ccc(B(O)O)cc1)/C=C/c1ccc(B(O)O)cc1 | 2.16 µM | 5.57 µM | 3.39 µM | 12.1 µM | 1.82 µM | 3.95 µM | 3.1 µM | > 100 µM | 1.9 µM | 4.24 µM | 1.95 µM | 3.61 µM | 2.82 µM | 10.4 µM | 6.22 µM | 19.2 µM | 3.46 µM | 13.3 µM | 3.55 µM | 15.2 µM |
| C=C1C(=O)O[C@H]2[C@H]1CC/C(CNC(=O)/C=C/c1ccc(Br)cc1)=C\CC[C@@]1(C)O[C@@H]21 | 1.05 µM | 2.45 µM | 1.78 µM | 4.27 µM | 0.622 µM | 2.66 µM | 0.438 µM | > 33.4 µM | 0.632 µM | 2.07 µM | 1.56 µM | 3 µM | 1.46 µM | 3.09 µM | 1.12 µM | 2.34 µM | 1.24 µM | 3.05 µM | 2.43 µM | 8.72 µM |
| C(=Nc1ccccc1)C1CCCC[N-]1.C(=Nc1ccccc1)C1CCCC[N-]1.[Cu+2].[O-][Cl+3]([O-])([O-])O (configuration not stated) | 13.3 µM | > 58.7 µM | 26.9 µM | > 89.6 µM | 15.5 µM | 30.8 µM | 0.745 µM | 14.4 µM | 1.57 µM | 4.31 µM | 2.4 µM | 24.4 µM | 10.7 µM | 30.4 µM | 3.96 µM | 16.6 µM | 14 µM | 47.8 µM | > 36.8 µM | > 57.1 µM |
| CC1=C([Se]CC(OC(=O)[C@@H](CSSC(C)(C)C)NC(=O)OC(C)(C)C)C(=O)NC(C)(C)C)C(=O)c2ccccc2C1=O (some centres not stated) | 1.65 µM | 3.01 µM | 1.96 µM | 3.39 µM | 2.3 µM | 6.3 µM | 1.28 µM | 2.62 µM | 1.64 µM | 3 µM | 1.54 µM | 3.1 µM | 0.675 µM | 1.94 µM | 1.66 µM | 3.02 µM | 1.15 µM | 2.36 µM | 1.28 µM | 2.66 µM |
| O=C(c1ccc2ccccc2c1O)N1CCCCC1 |  | > 100 µM |  | > 100 µM |  | > 100 µM |  | 75.3 µM |  | > 100 µM |  | > 100 µM |  | > 100 µM |  | > 100 µM |  | > 100 µM |  |  |
